The text below walks through data of patent publication US8629112B2, “Template-fixed peptidomimetics with CXCR7 modulating activity” (priority 2010, dated 2014).

Square brackets hold non-standard residues; d marks the D form. Peptide text beside a SMILES is read from it. * marks the point of attachment. Oic = O=C(O)[C@@H]1C[C@@H]2CCCC[C@@H]2N1; 1Nal = N[C@@H](Cc1cccc2ccccc12)C(=O)O; 2Nal = N[C@@H](Cc1ccc2ccccc2c1)C(=O)O; cisHyp = O=C(O)[C@@H]1C[C@H](O)CN1; Tic = O=C(O)[C@@H]1Cc2ccccc2CN1; dPip = O=C(O)[C@H]1CCCCN1; Aze = O=C(O)[C@@H]1CCN1; Bn = c1ccc(C*)cc1

The target of the first assay is T1, CXCR7 (Homo sapiens, UniProt P25106).
T1 construct: host or cells: CHO (PathHunter CHO-CXCR7 β-arrestin cells)
T1 sequence (P25106 whole entry): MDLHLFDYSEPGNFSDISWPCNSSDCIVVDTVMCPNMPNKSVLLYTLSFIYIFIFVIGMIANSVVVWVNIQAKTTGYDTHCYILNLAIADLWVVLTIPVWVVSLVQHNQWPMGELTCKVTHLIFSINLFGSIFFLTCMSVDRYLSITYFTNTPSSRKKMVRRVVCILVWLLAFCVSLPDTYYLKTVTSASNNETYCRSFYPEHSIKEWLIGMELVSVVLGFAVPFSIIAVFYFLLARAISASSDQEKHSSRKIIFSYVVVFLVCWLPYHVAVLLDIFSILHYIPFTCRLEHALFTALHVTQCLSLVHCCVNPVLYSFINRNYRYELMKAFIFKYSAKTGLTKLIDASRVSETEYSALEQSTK
Put plainly: CXCR7 β-arrestin recruitment assay (PathHunter CHO-CXCR7, agonistic assay).
Settings: not given
It counts as cell-based. The procedure: Lyophilized peptides were weighed on a Microbalance (Mettler MX5) and dissolved in DMSO to a final concentration of 10 mM unless otherwise stated. Stock solutions were kept at +4° C., and protected from light.
2.2 CXCR7 β-Arrestin Recruitment Assay
The PathHunter CHO-CXCR7 (DiscoverX) assay was performed according to the manufacturer's protocol. In brief, CHO CXCR7 β-arrestin cells were seeded at a density of 5000 cells per well in 40 μl of F12 medium in a 96-half volume well black culture plate and incubated overnight at 37° C. in a humidified atmosphere with 5% CO2. The next day, serial dilutions of PEM compounds have been prepared in DMSO and subsequently diluted in HBSS buffer containing 0.1% BSA.
For agonistic assay, 10 μl of compound solution or a solution of stromal cell-derived factor-1 (SDF-1) as positive control was added to the cells with a final DMSO concentration of 1% (v/v). The plate was incubated for 90 min at 37° C. in 5% CO2 incubator with gentle shaking (300 rpm) before addition of 40 ul of detection reagent per well. Reaction was developed 90 min at room temperature in the dark with shaking, and chemiluminescence was measured with a Topcount (Perkin Elmer) luminescence counter.
In general, EC50 refers to the concentration that produces a half-maximal response. `N=C(N)NCCC[C@@H]1NC(=O)[C@H](Cc2c[nH]c3ccccc23)NC(=O)[C@@H](Cc2ccccc2)NC(=O)[C@H](Cc2ccc(O)cc2)NC(=O)[C@@H]2Cc3ccccc3CN2C(=O)[C@H]2CCCN2C1=O` [compound 5, cyclo(-Tyr-^DPhe-Trp-Arg-^DPro-Tic-)] (cyclo(R[dP][Tic]Y[dF]W)) registered an EC50 of 11.5 ± 9 nM.

Staying with this assay, now noted: CHO CXCR7 β-arrestin cells, agonistic assay, 90 min at 37° C., chemiluminescence; read-out: β-Arrestin EC50.
For `N=C(N)NCCC[C@@H]1NC(=O)[C@H](Cc2c[nH]cn2)NC(=O)[C@@H](CCCNC(=N)N)NC(=O)[C@H](Cc2c[nH]c3ccccc23)NC(=O)[C@@H]2Cc3ccccc3CN2C(=O)[C@H]2CCCN2C1=O` [compound 37, cyclo(-Trp-^DArg-His-Arg-^DPro-Tic-)] (cyclo(HR[dP][Tic]W[dR])), the EC50 stood at 348 ± 55.6 nM.
Same read-out and setting: in the case of `N=C(N)NCCC[C@@H]1NC(=O)[C@H](Cc2c[nH]c3ccccc23)NC(=O)[C@@H](Cc2ccccc2)NC(=O)[C@H](Cc2c[nH]c3ccccc23)NC(=O)[C@@H]2C[C@H](OCc3ccccc3)CN2C(=O)[C@H]2CCCN2C1=O` [Ex. 27, cyclo(-Trp-^DPhe-Trp-Arg-^DPro-(4S)-Hyp(Bn)-)] (cyclo(R[dP][cisHyp](Bn)W[dF]W)) it was 1.7 ± 1.1 nM.
The same measure, in the same setting: in the case of `O=C1N[C@@H](Cc2c[nH]cn2)C(=O)N2CCC[C@@H]2C(=O)N2Cc3ccccc3C[C@H]2C(=O)N[C@@H](Cc2c[nH]c3ccccc23)C(=O)N[C@H](Cc2ccccc2)C(=O)N[C@H]1Cc1c[nH]c2ccccc12` [Ex. 23, cyclo(-Trp-^DPhe-Trp-His-^DPro-Tic-)] (cyclo(H[dP][Tic]W[dF]W)) it was 18.3 ± 17.6 nM; in that of `N=C(N)NCCC[C@@H]1NC(=O)[C@H](Cc2ccc(O)cc2)NC(=O)[C@@H](Cc2ccccc2)NC(=O)[C@H](Cc2c[nH]c3ccccc23)NC(=O)[C@@H]2Cc3ccccc3CN2C(=O)[C@H]2CCCN2C1=O` [compound 16, cyclo(-Trp-^DPhe-Tyr-Arg-^DPro-Tic-)] (cyclo(R[dP][Tic]W[dF]Y)), 326 ± 99.8 nM; in that of `N=C(N)NCCC[C@@H]1NC(=O)[C@H](Cc2c[nH]c3ccccc23)NC(=O)[C@@H](CCCNC(=N)N)NC(=O)[C@H](Cc2c[nH]c3ccccc23)NC(=O)[C@@H]2CCN2C(=O)[C@H]2CCCN2C1=O` [compound 51, cyclo(-Trp-^DArg-Trp-Arg-^DPro-Azt-)] (cyclo([Aze]W[dR]WR[dP])), 170 ± 22.5 nM.
For `N=C(N)NCCC[C@@H]1NC(=O)[C@H](Cc2c[nH]cn2)NC(=O)[C@@H](Cc2c[nH]c3ccccc23)NC(=O)[C@H](Cc2c[nH]cn2)NC(=O)[C@@H]2Cc3ccccc3CN2C(=O)[C@H]2CCCN2C1=O` [compound 31, cyclo(-His-^DTrp-His-Arg-^DPro-Tic-)] (cyclo(HR[dP][Tic]H[dW])), the EC50 was determined as 226 ± 13.2 nM.
Still for that read-out and setting: the same measure for `N=C(N)NCCC[C@@H]1NC(=O)[C@H](Cc2ccc3ccccc3c2)NC(=O)[C@@H](Cc2ccccc2)NC(=O)[C@H](Cc2c[nH]c3ccccc23)NC(=O)[C@@H]2Cc3ccccc3CN2C(=O)[C@H]2CCCN2C1=O` [compound 17, cyclo(-Trp-^DPhe-2Nal-Arg-^DPro-Tic-)] (cyclo([2Nal]R[dP][Tic]W[dF])): 16.9 ± 7.3 nM; for `N=C(N)NCCC[C@H]1NC(=O)[C@H](Cc2c[nH]c3ccccc23)NC(=O)[C@@H]2Cc3ccccc3CN2C(=O)[C@H]2CCCN2C(=O)[C@H](Cc2c[nH]c3ccccc23)NC(=O)[C@H](Cc2c[nH]cn2)NC1=O` [compound 38, cyclo(-Trp-^DArg-His-Trp-^DPro-Tic-)] (cyclo(HW[dP][Tic]W[dR])): 217 ± 12.5 nM.
As to `N=C(N)NCCC[C@@H]1NC(=O)[C@@H]2Cc3ccccc3CN2C(=O)[C@H]2CCCN2C(=O)[C@H](CCCNC(=N)N)NC(=O)[C@H](Cc2c[nH]cn2)NC(=O)[C@@H](Cc2c[nH]c3ccccc23)NC1=O` [compound 35, cyclo(-Arg-^DTrp-His-Arg-^DPro-Tic-)] (cyclo(HR[dP][Tic]R[dW])), the EC50 stood at 234 ± 132 nM.
Same read-out and setting: the same measure for `N=C(N)NCCC[C@@H]1NC(=O)[C@H](Cc2c[nH]c3ccccc23)NC(=O)[C@@H](Cc2ccccc2)NC(=O)[C@H](Cc2ccccc2)NC(=O)[C@@H]2Cc3ccccc3CN2C(=O)[C@H]2CCCN2C1=O` [Ex. 2, cyclo(-Phe-^DPhe-Trp-Arg-^DPro-Tic-)] (cyclo(F[dF]WR[dP][Tic])): 22.5 ± 13.7 nM.
Still for that read-out and setting: the same measure for `NCCCC[C@@H]1NC(=O)[C@H](Cc2c[nH]c3ccccc23)NC(=O)[C@@H](Cc2ccccc2)NC(=O)[C@H](Cc2c[nH]c3ccccc23)NC(=O)[C@@H]2Cc3ccccc3CN2C(=O)[C@H]2CCCN2C1=O` [compound 20, cyclo(-Trp-^DPhe-Trp-Lys-^DPro-Tic-)] (cyclo(K[dP][Tic]W[dF]W)): 16.5 ± 8 nM; for `N=C(N)NCCC[C@@H]1NC(=O)[C@H](Cc2ccccc2)NC(=O)[C@@H](Cc2ccccc2)NC(=O)[C@H](Cc2c[nH]c3ccccc23)NC(=O)[C@@H]2Cc3ccccc3CN2C(=O)[C@H]2CCCN2C1=O` [compound 15, cyclo(-Trp-^DPhe-Phe-Arg-^DPro-Tic-)] (cyclo(FR[dP][Tic]W[dF])): 75.7 ± 41.5 nM.
Turning to `CC[C@H](C)[C@@H]1NC(=O)[C@@H](CCCNC(=N)N)NC(=O)[C@H]([C@@H](C)CC)NC(=O)[C@@H]2Cc3ccccc3CN2C(=O)[C@H]2CCCN2C(=O)[C@H](CCCNC(=N)N)NC1=O` [compound 33, cyclo(-Ile-^DArg-Ile-Arg-^DPro-Tic-)] (cyclo(IR[dP][Tic]I[dR])), the EC50 was 34.3 ± 3.6 nM.
Take `CC[C@H](C)[C@@H]1NC(=O)[C@@H]2Cc3ccccc3CN2C(=O)[C@H]2CCCN2C(=O)[C@H](CCCNC(=N)N)NC(=O)[C@H](Cc2c[nH]cn2)NC(=O)[C@@H](Cc2c[nH]c3ccccc23)NC1=O` [compound 34, cyclo(-Ile-^DTrp-His-Arg-^DPro-Tic-)] (cyclo(HR[dP][Tic]I[dW])): the EC50 amounted to 317 ± 360 nM.
The same measure, in the same setting: the same measure for `N=C(N)NCCC[C@@H]1NC(=O)[C@H](Cc2c[nH]c3ccccc23)NC(=O)[C@@H](Cc2ccccc2)NC(=O)[C@H](Cc2c[nH]c3ccccc23)NC(=O)[C@@H]2CCCN2C(=O)[C@H]2CCCCN2C1=O` [compound 41, cyclo(-Trp-^DPhe-Trp-Arg-^DPip-Pro-)] (cyclo(PW[dF]WR[dPip])): 78.7 ± 0.9 nM; for `N=C(N)NCCC[C@@H]1NC(=O)[C@H](Cc2c[nH]c3ccccc23)NC(=O)[C@@H](Cc2ccccc2)NC(=O)[C@H](Cc2c[nH]c3ccccc23)NC(=O)[C@@H]2C[C@@H]3CCCC[C@@H]3N2C(=O)[C@H]2CCCN2C1=O` [Ex. 26, cyclo(-Trp-^DPhe-Trp-Arg-^DPro-Oic-)] (cyclo([Oic]W[dF]WR[dP])): 0.8 ± 0.5 nM.
Regarding `N=C(N)NCCC[C@@H]1NC(=O)[C@H](Cc2c[nH]c3ccccc23)NC(=O)[C@@H](CCCNC(=N)N)NC(=O)[C@H](Cc2cccc3ccccc23)NC(=O)[C@@H]2Cc3ccccc3CN2C(=O)[C@H]2CCCN2C1=O` [compound 28, cyclo(-1Nal-^DArg-Trp-Arg-^DPro-Tic-)] (cyclo([1Nal][dR]WR[dP][Tic])), the EC50 is 280 ± 115 nM.
On to `N=C(N)NCCC[C@@H]1NC(=O)[C@H](Cc2c[nH]c3ccccc23)NC(=O)[C@@H](Cc2ccccc2)NC(=O)[C@H](Cc2c[nH]cn2)NC(=O)[C@@H]2Cc3ccccc3CN2C(=O)[C@H]2CCCN2C1=O` [compound 3, cyclo(-His-^DPhe-Trp-Arg-^DPro-Tic-)] (cyclo(H[dF]WR[dP][Tic])), for which the EC50 is 32.1 ± 3.9 nM.
As to `C[C@@H]1NC(=O)[C@@H]2Cc3ccccc3CN2C(=O)[C@H]2CCCN2C(=O)[C@H](CCCNC(=N)N)NC(=O)[C@H](Cc2c[nH]c3ccccc23)NC(=O)[C@@H](Cc2ccccc2)NC1=O` [Ex. 1, cyclo(-Ala-^DPhe-Trp-Arg-^DPro-Tic-)] (cyclo(A[dF]WR[dP][Tic])), the EC50 came out at 163 ± 40.9 nM.
The same measure, in the same setting: in the case of `CC[C@H](C)[C@@H]1NC(=O)[C@@H](Cc2c[nH]cn2)NC(=O)[C@H](Cc2cccc3ccccc23)NC(=O)[C@@H]2Cc3ccccc3CN2C(=O)[C@H]2CCCN2C(=O)[C@H](CCCNC(=N)N)NC1=O` [compound 29, cyclo(-1Nal-^DHis-Ile-Arg-^DPro-Tic-)] (cyclo([1Nal][dH]IR[dP][Tic])) it was 347 ± 110 nM; in that of `O=C1N[C@@H](Cc2ccc(O)cc2)C(=O)N2CCC[C@@H]2C(=O)N2Cc3ccccc3C[C@H]2C(=O)N[C@@H](Cc2c[nH]c3ccccc23)C(=O)N[C@H](Cc2ccccc2)C(=O)N[C@H]1Cc1c[nH]c2ccccc12` [compound 24, cyclo(-Trp-^DPhe-Trp-Tyr-^DPro-Tic-)] (cyclo([Tic]W[dF]WY[dP])), 94.5 ± 54.1 nM; in that of `CC[C@H](C)[C@@H]1NC(=O)[C@@H](Cc2c[nH]cn2)NC(=O)[C@H](Cc2c[nH]c3ccccc23)NC(=O)[C@@H]2CCN2C(=O)[C@H]2CCCN2C(=O)[C@H](CCCNC(=N)N)NC1=O` [compound 47, cyclo(-Trp-^DHis-Ile-Arg-^DPro-Azt-)] (cyclo([Aze]W[dH]IR[dP])), 344.5 ± 0.6 nM.
On the same count and under the same terms, in the case of `CC[C@H](C)[C@@H]1NC(=O)[C@@H](Cc2ccccc2)NC(=O)[C@H](Cc2c[nH]c3ccccc23)NC(=O)[C@@H]2Cc3ccccc3CN2C(=O)[C@H]2CCCN2C(=O)[C@H](CCCNC(=N)N)NC1=O` [compound 18, cyclo(-Trp-^DPhe-Ile-Arg-^DPro-Tic-)] (cyclo(IR[dP][Tic]W[dF])) it was 148 ± 96.8 nM.
